Experimental findings from article PMC12073402, “A Selective MAP3K1 Inhibitor Facilitates Discovery of NPM1 as a Member of the Network” (Molecules, 2025) are described below.

Common to all, as to assay: KiNativ kinome profiling in PANC-1 lysate
Holding throughout (assay type): binding

One test has as its target T1, CASK (Homo sapiens, UniProt O14936).
T1 construct: endogenous in cells; host or cells: PANC-1 cell lysate
The note with it: Lys1. A digest of the protocol: (§1)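 PANC-1 lysates were incubated with 5 μM inhibitor or DMSO, then labeled with a desthiobiotin-ATP acyl-phosphate probe that biotinylates conserved kinase lysines. Tryptic peptides were streptavidin-enriched and quantified by LC-MS/MS, reported as % change in MS signal from duplicate treated and duplicate control samples.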

The target of the next test is T2, DGKH (Homo sapiens, UniProt Q86XP1).
T2 construct: endogenous in cells; host or cells: PANC-1 lysate
The note with it: ATP. Put shortly:
as §1

The target of another test is T3, DNAPK (Homo sapiens, UniProt P78527).
T3 construct: endogenous in cells; host or cells: PANC-1 lysate
The note with it: ATP. A digest of the protocol: as §1

In a further test the target is T4, JAK3 domain2 (Homo sapiens, UniProt P52333).
T4 construct: we opted to conduct a kinome screen (KiNativ) in PANC-1 cell lysates; endogenous in cells; host or cells: PANC-1 cell lysate
The note with it: Lys1. Put shortly: as §1

The target in a further test is T5, MAP3K15, MAP3K5, MAP3K6 (Homo sapiens, UniProt Q6ZN16).
T5 construct: endogenous in cells; host or cells: PANC-1 cell lysate
The note with it: 5 μM; PANC-1 lysate. Put shortly:
as §1

Another test has as its target T6, MARK3 (Homo sapiens, UniProt P27448).
T6 construct: endogenous in cells; host or cells: PANC-1 cell lysate
The note with it: Lys1. A digest of the protocol:
as §1

For another test, the system named is NDR1, NDR2. The note with it: 5 µM; ATP Loop; LSDFGLCTGLKK
Put shortly:
as §1

The next test has as its target T7, NEK9 (Homo sapiens, UniProt Q8TD19).
T7 construct: endogenous in cells; host or cells: PANC-1 cell lysate
T7 sequence (Q8TD19 1-979): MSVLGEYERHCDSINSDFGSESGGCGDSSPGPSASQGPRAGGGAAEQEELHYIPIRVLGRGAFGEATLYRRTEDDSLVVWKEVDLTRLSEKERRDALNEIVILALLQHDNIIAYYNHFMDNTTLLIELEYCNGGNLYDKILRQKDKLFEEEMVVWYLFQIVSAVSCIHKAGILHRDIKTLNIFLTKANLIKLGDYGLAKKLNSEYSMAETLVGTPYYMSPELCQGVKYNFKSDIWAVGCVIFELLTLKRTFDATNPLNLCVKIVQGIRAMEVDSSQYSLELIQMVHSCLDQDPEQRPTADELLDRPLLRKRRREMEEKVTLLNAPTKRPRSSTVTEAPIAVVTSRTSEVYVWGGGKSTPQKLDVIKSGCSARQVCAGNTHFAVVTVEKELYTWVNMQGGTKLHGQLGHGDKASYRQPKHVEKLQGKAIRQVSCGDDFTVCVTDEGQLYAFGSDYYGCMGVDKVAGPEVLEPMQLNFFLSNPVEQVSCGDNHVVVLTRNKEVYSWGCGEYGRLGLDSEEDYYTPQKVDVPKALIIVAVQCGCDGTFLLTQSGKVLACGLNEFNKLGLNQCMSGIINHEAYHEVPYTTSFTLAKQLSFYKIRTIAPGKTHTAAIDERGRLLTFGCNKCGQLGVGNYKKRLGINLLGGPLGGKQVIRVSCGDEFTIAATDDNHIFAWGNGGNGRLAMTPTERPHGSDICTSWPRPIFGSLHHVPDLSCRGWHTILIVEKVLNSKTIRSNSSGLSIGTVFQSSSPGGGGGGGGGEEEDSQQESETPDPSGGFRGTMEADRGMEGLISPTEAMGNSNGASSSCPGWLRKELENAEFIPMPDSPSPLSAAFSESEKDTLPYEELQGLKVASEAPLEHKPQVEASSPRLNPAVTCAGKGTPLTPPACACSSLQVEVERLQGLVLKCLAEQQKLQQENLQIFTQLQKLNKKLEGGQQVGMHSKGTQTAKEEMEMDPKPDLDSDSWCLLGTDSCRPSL
A digest of the protocol: as §1

Another test addresses T8, PAK2 (Homo sapiens, UniProt Q13177).
T8 construct: endogenous in cells; host or cells: PANC-1 cell lysate
A digest of the protocol:
as §1

The test system of another test is PCTAIRE2, PCTAIRE3. The note with it: 5 µM; Lys1; SKLTENLVALKEIR
Put shortly:
as §1

The target of the next test is T9, RIPK2 (Homo sapiens, UniProt O43353).
T9 construct: endogenous in cells; host or cells: PANC-1 cell lysate
To be noted: Lys2. Put shortly:
as §1

For another test, the system named is ROCK1, ROCK2. To be noted: 5 µM. A digest of the protocol: as §1
Another test concerns the target T10, SBK (Homo sapiens, UniProt Q52WX2).
T10 construct: endogenous in cells; host or cells: PANC-1 cell lysate
The note with it: Lys2. A digest of the protocol:
as §1

Another test concerns the target T11, STLK6 (Homo sapiens, UniProt Q9C0K7).
T11 construct: endogenous in cells; host or cells: PANC-1 cell lysate
To be noted: Lys1. Put shortly: as §1

T3 sequence (P78527 whole entry): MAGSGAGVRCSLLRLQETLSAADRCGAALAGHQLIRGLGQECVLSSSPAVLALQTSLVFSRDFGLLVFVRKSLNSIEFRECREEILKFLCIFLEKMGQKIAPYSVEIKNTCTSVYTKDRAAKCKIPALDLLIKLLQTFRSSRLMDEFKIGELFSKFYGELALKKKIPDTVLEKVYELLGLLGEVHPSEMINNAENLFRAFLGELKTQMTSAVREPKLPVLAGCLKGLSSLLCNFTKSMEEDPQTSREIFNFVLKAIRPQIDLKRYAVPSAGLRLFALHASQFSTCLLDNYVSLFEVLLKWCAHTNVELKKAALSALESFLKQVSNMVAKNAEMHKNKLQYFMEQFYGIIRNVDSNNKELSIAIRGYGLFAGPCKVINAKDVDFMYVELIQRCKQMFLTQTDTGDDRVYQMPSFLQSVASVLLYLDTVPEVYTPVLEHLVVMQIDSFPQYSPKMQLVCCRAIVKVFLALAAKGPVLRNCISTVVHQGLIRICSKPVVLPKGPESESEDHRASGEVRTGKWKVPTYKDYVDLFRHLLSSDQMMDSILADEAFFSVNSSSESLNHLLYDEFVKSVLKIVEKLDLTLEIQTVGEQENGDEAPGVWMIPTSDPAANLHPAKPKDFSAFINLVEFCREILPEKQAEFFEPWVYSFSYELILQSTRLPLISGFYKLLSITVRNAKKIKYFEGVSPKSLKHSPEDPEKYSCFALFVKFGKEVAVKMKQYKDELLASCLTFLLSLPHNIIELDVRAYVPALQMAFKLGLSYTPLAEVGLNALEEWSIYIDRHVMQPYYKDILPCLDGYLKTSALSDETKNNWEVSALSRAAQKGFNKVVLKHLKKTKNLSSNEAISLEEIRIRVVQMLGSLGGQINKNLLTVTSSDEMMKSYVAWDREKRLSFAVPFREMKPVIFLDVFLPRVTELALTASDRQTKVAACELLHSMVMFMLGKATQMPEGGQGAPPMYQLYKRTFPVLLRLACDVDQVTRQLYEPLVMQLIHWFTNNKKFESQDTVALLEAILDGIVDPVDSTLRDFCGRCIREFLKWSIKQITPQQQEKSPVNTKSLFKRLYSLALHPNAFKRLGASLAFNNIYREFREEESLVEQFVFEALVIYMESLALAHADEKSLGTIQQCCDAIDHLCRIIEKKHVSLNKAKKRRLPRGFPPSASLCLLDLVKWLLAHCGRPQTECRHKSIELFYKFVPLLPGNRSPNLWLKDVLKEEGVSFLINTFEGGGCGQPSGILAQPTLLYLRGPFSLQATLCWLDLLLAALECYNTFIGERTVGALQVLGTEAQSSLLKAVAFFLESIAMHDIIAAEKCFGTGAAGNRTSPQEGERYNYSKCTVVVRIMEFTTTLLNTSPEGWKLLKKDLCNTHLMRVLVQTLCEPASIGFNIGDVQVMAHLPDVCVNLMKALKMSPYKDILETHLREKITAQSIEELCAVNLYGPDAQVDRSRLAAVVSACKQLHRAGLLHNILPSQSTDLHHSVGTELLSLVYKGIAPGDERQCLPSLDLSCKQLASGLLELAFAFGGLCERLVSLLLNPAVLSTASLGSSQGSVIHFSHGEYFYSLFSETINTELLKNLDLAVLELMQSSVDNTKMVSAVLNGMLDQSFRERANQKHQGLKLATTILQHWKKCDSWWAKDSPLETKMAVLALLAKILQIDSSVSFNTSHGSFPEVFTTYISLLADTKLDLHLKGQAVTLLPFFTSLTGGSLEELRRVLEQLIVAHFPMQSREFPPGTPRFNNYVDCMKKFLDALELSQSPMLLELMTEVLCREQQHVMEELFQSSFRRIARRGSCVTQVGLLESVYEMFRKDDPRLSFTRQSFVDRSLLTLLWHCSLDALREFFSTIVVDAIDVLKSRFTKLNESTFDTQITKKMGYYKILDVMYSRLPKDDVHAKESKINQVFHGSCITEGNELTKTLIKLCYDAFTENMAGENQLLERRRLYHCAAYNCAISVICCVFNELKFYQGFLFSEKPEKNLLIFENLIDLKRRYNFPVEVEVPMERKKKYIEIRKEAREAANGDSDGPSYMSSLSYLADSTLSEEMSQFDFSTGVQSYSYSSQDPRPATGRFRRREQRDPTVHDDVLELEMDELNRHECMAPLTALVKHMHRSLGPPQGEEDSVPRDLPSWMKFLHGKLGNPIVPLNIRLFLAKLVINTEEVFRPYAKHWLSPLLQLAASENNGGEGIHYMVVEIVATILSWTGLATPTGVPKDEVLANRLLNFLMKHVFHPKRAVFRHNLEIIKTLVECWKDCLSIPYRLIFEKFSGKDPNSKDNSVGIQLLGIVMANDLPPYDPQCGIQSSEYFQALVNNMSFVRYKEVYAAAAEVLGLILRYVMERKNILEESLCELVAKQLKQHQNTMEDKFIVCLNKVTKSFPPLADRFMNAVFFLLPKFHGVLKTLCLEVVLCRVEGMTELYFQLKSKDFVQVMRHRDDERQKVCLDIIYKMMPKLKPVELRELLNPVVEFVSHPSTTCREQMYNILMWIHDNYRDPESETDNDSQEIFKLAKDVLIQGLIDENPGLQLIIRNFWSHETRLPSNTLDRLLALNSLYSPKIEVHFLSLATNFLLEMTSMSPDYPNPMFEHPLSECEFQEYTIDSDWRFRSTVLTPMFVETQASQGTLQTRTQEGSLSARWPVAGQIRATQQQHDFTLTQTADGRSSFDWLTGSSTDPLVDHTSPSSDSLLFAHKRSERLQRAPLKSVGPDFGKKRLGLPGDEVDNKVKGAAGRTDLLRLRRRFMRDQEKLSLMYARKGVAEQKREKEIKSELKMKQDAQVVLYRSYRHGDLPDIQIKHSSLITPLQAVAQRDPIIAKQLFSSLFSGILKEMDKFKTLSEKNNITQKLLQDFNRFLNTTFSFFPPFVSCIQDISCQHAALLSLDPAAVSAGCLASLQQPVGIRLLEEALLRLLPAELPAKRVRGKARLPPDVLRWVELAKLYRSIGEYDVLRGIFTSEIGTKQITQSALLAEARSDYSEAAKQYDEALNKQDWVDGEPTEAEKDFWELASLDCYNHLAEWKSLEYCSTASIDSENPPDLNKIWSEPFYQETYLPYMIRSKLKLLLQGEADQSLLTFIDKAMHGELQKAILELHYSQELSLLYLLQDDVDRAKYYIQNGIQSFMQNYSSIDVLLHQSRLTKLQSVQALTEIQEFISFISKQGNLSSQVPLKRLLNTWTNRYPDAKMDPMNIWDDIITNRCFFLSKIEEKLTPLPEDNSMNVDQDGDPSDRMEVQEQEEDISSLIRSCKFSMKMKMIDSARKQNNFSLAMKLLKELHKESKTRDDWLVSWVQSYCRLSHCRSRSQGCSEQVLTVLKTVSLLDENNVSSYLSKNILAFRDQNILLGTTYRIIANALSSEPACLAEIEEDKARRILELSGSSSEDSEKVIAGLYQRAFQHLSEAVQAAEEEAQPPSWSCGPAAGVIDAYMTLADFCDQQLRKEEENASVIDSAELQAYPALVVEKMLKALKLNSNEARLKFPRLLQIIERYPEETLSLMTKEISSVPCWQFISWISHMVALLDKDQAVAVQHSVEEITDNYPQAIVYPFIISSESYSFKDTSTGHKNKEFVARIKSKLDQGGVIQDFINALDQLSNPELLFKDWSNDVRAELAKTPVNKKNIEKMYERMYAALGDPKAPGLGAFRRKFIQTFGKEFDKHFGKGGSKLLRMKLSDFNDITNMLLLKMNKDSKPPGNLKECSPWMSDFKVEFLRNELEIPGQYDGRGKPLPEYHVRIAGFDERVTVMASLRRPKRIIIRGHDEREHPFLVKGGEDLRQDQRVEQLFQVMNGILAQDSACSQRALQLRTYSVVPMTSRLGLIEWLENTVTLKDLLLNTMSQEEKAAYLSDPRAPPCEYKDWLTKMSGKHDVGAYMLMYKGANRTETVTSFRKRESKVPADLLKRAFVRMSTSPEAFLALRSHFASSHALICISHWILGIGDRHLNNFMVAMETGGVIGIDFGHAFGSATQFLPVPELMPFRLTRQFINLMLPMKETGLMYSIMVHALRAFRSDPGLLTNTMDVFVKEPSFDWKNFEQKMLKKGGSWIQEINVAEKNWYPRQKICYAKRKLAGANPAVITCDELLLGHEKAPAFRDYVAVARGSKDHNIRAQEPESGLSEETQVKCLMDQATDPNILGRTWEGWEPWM
T8 sequence (Q13177 whole entry): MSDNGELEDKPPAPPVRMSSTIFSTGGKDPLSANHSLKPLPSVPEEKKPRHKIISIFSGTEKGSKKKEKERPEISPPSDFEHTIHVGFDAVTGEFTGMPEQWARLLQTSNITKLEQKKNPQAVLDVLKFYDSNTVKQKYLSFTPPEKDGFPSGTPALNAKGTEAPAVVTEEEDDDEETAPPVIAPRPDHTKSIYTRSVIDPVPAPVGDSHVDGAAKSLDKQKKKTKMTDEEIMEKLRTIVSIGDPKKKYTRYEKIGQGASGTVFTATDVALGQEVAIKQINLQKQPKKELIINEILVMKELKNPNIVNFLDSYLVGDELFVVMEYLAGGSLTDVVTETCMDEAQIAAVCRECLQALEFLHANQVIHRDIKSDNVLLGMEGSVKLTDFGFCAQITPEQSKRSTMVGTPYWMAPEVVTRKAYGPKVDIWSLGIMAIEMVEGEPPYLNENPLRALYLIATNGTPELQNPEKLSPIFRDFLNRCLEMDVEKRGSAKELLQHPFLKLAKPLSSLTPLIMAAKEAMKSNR
T10 sequence (Q52WX2 whole entry): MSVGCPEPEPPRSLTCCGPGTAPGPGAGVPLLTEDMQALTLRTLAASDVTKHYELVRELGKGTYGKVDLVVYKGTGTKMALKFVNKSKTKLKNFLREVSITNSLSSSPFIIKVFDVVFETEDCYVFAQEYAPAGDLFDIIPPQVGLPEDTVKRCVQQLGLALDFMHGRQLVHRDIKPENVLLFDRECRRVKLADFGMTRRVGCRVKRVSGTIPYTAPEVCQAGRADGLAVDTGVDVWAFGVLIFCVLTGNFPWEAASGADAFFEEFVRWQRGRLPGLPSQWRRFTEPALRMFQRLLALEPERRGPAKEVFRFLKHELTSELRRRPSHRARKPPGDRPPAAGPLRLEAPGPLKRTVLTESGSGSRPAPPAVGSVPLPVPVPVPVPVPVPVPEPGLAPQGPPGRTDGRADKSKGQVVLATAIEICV

By inhibition is commonly meant the relative decrease from the control value, in per cent. As a reminder, the % Inhibition is the percentage by which the read-out fell short of the control. Read a high % Inhibition as a strong effect. `Cn1cc(-c2cnc3ccc(NC(=O)Nc4ccc(F)c(C(F)(F)F)c4)cc3n2)cn1` [51-106, 1-(4-Fluoro-3-(trifluoromethyl)phenyl)-3-(3-(1-methyl-1H-pyrazol-4-yl)quinoxalin-6-yl)urea]: the inhibition at 5 µM on CASK was no more than 0%; on DGKH, no more than 0%; at DNAPK ([…]), no more than 0%; at JAK3 domain2, 25.2%; on MARK3, no more than 0%; against NEK9 (ATP Loop, LGDYGLAKK), no more than 0%. Besides, the inhibition at 5 µM at NEK9 (Lys1, RTEDDSLVVWKEVDLTR) was 0.6%; at NEK9 (Lys2, DIKTLNIFLTK), 13.8%; against PAK2 (Lys1, IGQGASGTVFTATDVALGQEVAIKQINLQK) it was 6.9%; against PAK2 (Other, KNPQAVLDVLKFYDSNTVK), 0.8%; on RIPK2 it was no more than 0%; against SBK, no more than 0%. Further, the inhibition at 5 µM on STLK6 was determined as 5.8%. The “% Inhibition” value at DNAPK (5 µM, EHPFLVKGGEDLR) is on record as “NB (NB = No Binding (≤ 0))”; in the test on NDR1, NDR2, “NB (NB = No Binding (≤ 0))”; in the test on PCTAIRE2, PCTAIRE3, “NB (NB = No Binding (≤ 0))”; in the test on ROCK1, ROCK2 (Lys1, VYAMKLLSK), 11.9%; in the test on ROCK1, ROCK2 (Lys2, DVKPDNMLLDK), “NB (NB = No Binding (≤ 0))”. The “inhibition of MAP3K15 (in words)” value at MAP3K15, MAP3K5, MAP3K6 is “did not inhibit”.
